Laboratory results reported in BigSolDB 2.1.

C=C(C)[C@@H]1CC[C@]2(CO)CC[C@]3(C)[C@H](CC[C@@H]4[C@@]5(C)CC[C@H](O)C(C)(C)[C@@H]5CC[C@]43C)[C@@H]12
solubility (mole fraction)
Settings	278.2 K	288.2 K	298.2 K	308.2 K	318.2 K
in acetone	0.000689	0.00101	0.0015	0.00203	0.00243
in ethanol	0.000842	0.00096	0.00107	0.00124	0.00135
